# Earlier results in US6548087B1, “Nutritional supplement” (priority 1999, dated 2003).
# Test system: libido and performance
# Settings: daily use
compound,measurement,value
"C[C@]12CC[C@H](O)CC1=CC[C@@H]1[C@@H]2CC[C@]2(C)C(=O)CC[C@@H]12 [DHEA, dehydroepiandrosterone]",effect on libido and performance,increase libido and performance
